Source: patent US20260158009A1 (GENZYME CORPORATION, priority 2023, published 2026)

Legend:
[1] = test system: U937 cells; assay: Cellular assay in U937 cells: activity of RIPK1 inhibitors on TNFα/zVAD.fmk-induced cell death (necroptosis), CellTiter 96 AQueous (MTS) readout; format: cell-based; conditions: Homo sapiens, U-937
In short: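 Necroptosis was measured by viable-cell MTS reduction (4 h, absorbance 490 nm) after overnight (18–24 h) 37° C culture. Cell suspensions of U937 cells carried TNFα (100 ng/ml) plus zVAD.fmk (50 μM) before compound was added. A 10-point curve (10 μM–0.26 nM or 1 μM–0.07 nM) was run in duplicate, normalised to the control lacking TNFα/zVAD.fmk.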

[2] = target: T1, hRIPK1 (aa 1-375) fusion protein (Homo sapiens, UniProt Q13546); assay: ADP-Glo kinase assay: catalytic activity of RIPK1 (autophosphorylation, conversion of ATP to ADP); format: biochemical
T1 construct: hRIPK1 (aa 1-375) fusion protein
T1 sequence (Q13546 1-375): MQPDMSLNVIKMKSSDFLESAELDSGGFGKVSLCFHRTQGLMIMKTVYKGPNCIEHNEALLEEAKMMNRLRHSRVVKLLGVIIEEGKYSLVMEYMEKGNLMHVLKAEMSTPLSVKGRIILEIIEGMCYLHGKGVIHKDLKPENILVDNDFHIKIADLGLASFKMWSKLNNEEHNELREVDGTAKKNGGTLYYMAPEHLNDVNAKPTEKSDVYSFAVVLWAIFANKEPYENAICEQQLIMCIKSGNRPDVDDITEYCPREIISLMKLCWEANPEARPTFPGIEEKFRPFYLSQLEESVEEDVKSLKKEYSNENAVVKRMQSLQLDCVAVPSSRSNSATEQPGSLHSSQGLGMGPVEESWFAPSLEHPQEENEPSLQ
In short: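 hRIPK1 (aa 1-375) fusion protein (3.6 μg/ml final) was preincubated 30 min at rt with compound (33300-1.69 nM, 1% DMSO), then 50 μM ATP was added for 240 min at rt. ADP from autophosphorylation was measured by ADP-Glo luminescence and curves fitted by nonlinear regression.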

Structure (SMILES)	IC50 [1] [nM]	IC50 [2] [nM]
O=C([C@H]1CC[C@H](Cc2cc(F)cc(CO)c2)CC1)N1OCC[C@H]1c1cnccn1 [compound 259, trans-[4-[[3-fluoro-5-(hydroxymethyl)phenyl]methyl]cyclohexyl]-[(3S)-3-pyrazin-2-ylisoxazolidin-2-yl]methanone]	2	8
Cc1nc2ccc(C[C@H]3CC[C@H](C(=O)N4OCC[C@H]4c4ccc(F)cc4)CC3)cn2n1 [compound 260, trans-[(3S)-3-(4-fluorophenyl)isoxazolidin-2-yl]-[4-[(2-methyl-[1,2,4]triazolo[1,5-a]pyridin-6-yl)methyl]cyclohexyl]methanone]	25	32
Cc1nc2ccc(C[C@H]3CC[C@H](C(=O)N4OCC[C@H]4c4ccc(F)c(F)c4)CC3)cn2n1 [compound 261, trans-[(3S)-3-(3,4-difluorophenyl)isoxazolidin-2-yl]-[4-[(2-methyl-[1,2,4]triazolo[1,5-a]pyridin-6-yl)methyl]cyclohexyl]methanone]	17	23
Cc1nc2ccc(C[C@H]3CC[C@H](C(=O)N4OCC[C@H]4c4cncc(C#N)c4)CC3)cn2n1 [compound 262, trans-5-[(3S)-2-[4-[(2-methyl-[1,2,4]triazolo[1,5-a]pyridin-6-yl)methyl]cyclohexanecarbonyl]isoxazolidin-3-yl]pyridine-3-carbonitrile]	67	34
Cc1ncc(C[C@H]2CC[C@H](C(=O)N3OCC[C@H]3c3cc(F)cc(C#N)c3)CC2)cn1 [compound 263, trans-3-fluoro-5-[(3S)-2-[4-[(2-methylpyrimidin-5-yl)methyl]cyclohexanecarbonyl]isoxazolidin-3-yl]benzonitrile]	59	41
Cc1ncc(C[C@H]2CC[C@H](C(=O)N3OCC[C@H]3c3cc(F)cc(F)c3)CC2)cn1 [compound 264, trans-[(3S)-3-(3,5-difluorophenyl)isoxazolidin-2-yl]-[4-[(2-methylpyrimidin-5-yl)methyl]cyclohexyl]methanone]	16	14
O=C([C@H]1CC[C@H](Cc2ccc(CO)c(F)c2)CC1)N1OCC[C@H]1c1cc(F)cc(F)c1 [compound 265, trans-[(3S)-3-(3,5-difluorophenyl)isoxazolidin-2-yl]-[4-[[3-fluoro-4-(hydroxymethyl)phenyl]methyl]cyclohexyl]methanone]	1	8
N#Cc1cc(F)cc([C@@H]2CCON2C(=O)[C@H]2CC[C@H](Cc3ccc(CO)c(F)c3)CC2)c1 [compound 266, trans-3-fluoro-5-[(3S)-2-[4-[[3-fluoro-4-(hydroxymethyl)phenyl]methyl]cyclohexanecarbonyl]isoxazolidin-3-yl]benzonitrile]	1	13
Cc1ncc(C[C@H]2CC[C@H](C(=O)N3OCC[C@H]3c3cc(F)cc(F)c3)CC2)cc1C#N [compound 267, trans-5-[[4-[(3S)-3-(3,5-difluorophenyl)isoxazolidine-2-carbonyl]cyclohexyl]methyl]-2-methyl-pyridine-3-carbonitrile]	2	12
Cc1ncc(C[C@H]2CC[C@H](C(=O)N3OCC[C@H]3c3cc(F)cc(C#N)c3)CC2)cc1C#N [compound 268, trans-5-[[4-[(3S)-3-(3-cyano-5-fluoro-phenyl)isoxazolidine-2-carbonyl]cyclohexyl]methyl]-2-methyl-pyridine-3-carbonitrile]	5	12
Cc1ccc(CC23CCC(C(=O)N4OCC[C@H]4c4cc(F)cc(F)c4)(CC2)C3)cc1C(N)=O [compound 269, 5-[[4-[(3S)-3-(3,5-difluorophenyl)isoxazolidine-2-carbonyl]norbornan-1-yl]methyl]-2-methyl-benzamide]	28	13
Cc1ccc(CC23CCC(C(=O)N4OCC[C@H]4c4cc(F)cc(C#N)c4)(CC2)C3)cc1C(N)=O [compound 270, 5-[[4-[(3S)-3-(3-cyano-5-fluoro-phenyl)isoxazolidine-2-carbonyl]norbornan-1-yl]methyl]-2-methyl-benzamide]	50	20
Cc1ccc([C@@H]2CCON2C(=O)C23CCC(Cc4ccc(C)c(C(N)=O)c4)(CC2)C3)cn1 [compound 271, 2-methyl-5-[[4-[(3S)-3-(6-methyl-3-pyridyl)isoxazolidine-2-carbonyl]norbornan-1-yl]methyl]benzamide]	605	97
Cc1ccc([C@@H]2CCON2C(=O)C23CCC(Cc4ccc(C)c(C(N)=O)c4)(CC2)CC3)cn1 [compound 272, 2-methyl-5-[[4-[(3S)-3-(6-methyl-3-pyridyl)isoxazolidine-2-carbonyl]-1-bicyclo[2.2.2]octanyl]methyl]benzamide]	206	29
Cc1ccc(CC23CCC(C(=O)N4OCC[C@H]4c4cc(F)cc(F)c4)(CC2)CC3)cc1C(N)=O [compound 273, 5-[[4-[(3S)-3-(3,5-difluorophenyl)-1,2-oxazolidine-2-carbonyl]-1-bicyclo[2.2.2]octanyl]methyl]-2-methylbenzamide]	9	15
Cc1ccc(CC23CCC(C(=O)N4OCC[C@H]4c4cc(F)cc(C#N)c4)(CC2)CC3)cc1C(N)=O [compound 274, 5-[[4-[(3S)-3-(3-cyano-5-fluoro-phenyl)isoxazolidine-2-carbonyl]-1-bicyclo[2.2.2]octanyl]methyl]-2-methyl-benzamide]	40	9
Cc1c(C#N)cncc1C[C@H]1CC[C@H](C(=O)N2OCC[C@H]2c2cc(F)cc(F)c2)CC1 [compound 275, trans-5-[[4-[(3S)-3-(3,5-difluorophenyl)isoxazolidine-2-carbonyl]cyclohexyl]methyl]-4-methyl-pyridine-3-carbonitrile]	9	8
Cc1c(C#N)cncc1C[C@H]1CC[C@H](C(=O)N2OCC[C@H]2c2cc(F)cc(C#N)c2)CC1 [compound 276, trans-5-[[4-[(3S)-3-(3-cyano-5-fluoro-phenyl)isoxazolidine-2-carbonyl]cyclohexyl]methyl]-4-methyl-pyridine-3-carbonitrile]	9	20
Cc1ncc(C#N)cc1C[C@H]1CC[C@H](C(=O)N2OCC[C@H]2c2cc(F)cc(C#N)c2)CC1 [compound 277, trans-5-[[4-[(3S)-3-(3-cyano-5-fluoro-phenyl)isoxazolidine-2-carbonyl]cyclohexyl]methyl]-6-methyl-pyridine-3-carbonitrile]	4	19
Cc1ncc(C#N)cc1C[C@H]1CC[C@H](C(=O)N2OCC[C@H]2c2cc(F)cc(F)c2)CC1 [compound 278, trans-5-[[4-[(3S)-3-(3,5-difluorophenyl)isoxazolidine-2-carbonyl]cyclohexyl]methyl]-6-methyl-pyridine-3-carbonitrile]	3	16
N#Cc1cc(F)cc([C@@H]2CCON2C(=O)[C@H]2CC[C@H](Cc3ccc(CCO)c(F)c3)CC2)c1 [compound 279, trans-3-fluoro-5-[(3S)-2-[4-[[3-fluoro-4-(2-hydroxyethyl)phenyl]methyl]cyclohexanecarbonyl]isoxazolidin-3-yl]benzonitrile]	9	7
O=C([C@H]1CC[C@H](Cc2ccc(CCO)c(F)c2)CC1)N1OCC[C@H]1c1cc(F)cc(F)c1 [compound 280, trans-[(3S)-3-(3,5-difluorophenyl)isoxazolidin-2-yl]-[4-[[3-fluoro-4-(2-hydroxyethyl)phenyl]methyl]cyclohexyl]methanone]	7	13
Cc1cn2cc(C[C@H]3CC[C@H](C(=O)N4OCC[C@H]4c4cc(F)cc(F)c4)CC3)cc(F)c2n1 [compound 281, trans-[(3S)-3-(3,5-difluorophenyl)isoxazolidin-2-yl]-[4-[(8-fluoro-2-methyl-imidazo[1,2-a]pyridin-6-yl)methyl]cyclohexyl]methanone]	5	19
N#Cc1cc(F)cc([C@@H]2CCON2C(=O)[C@H]2CC[C@H](Cc3cc(F)cc(CCO)c3)CC2)c1 [compound 282, trans-3-fluoro-5-[(3S)-2-[4-[[3-fluoro-5-(2-hydroxyethyl)phenyl]methyl]cyclohexanecarbonyl]isoxazolidin-3-yl]benzonitrile]	10	18
O=C([C@H]1CC[C@H](Cc2cc(F)cc(CCO)c2)CC1)N1OCC[C@H]1c1cc(F)cc(F)c1 [compound 283, trans-[(3S)-3-(3,5-difluorophenyl)isoxazolidin-2-yl]-[4-[[3-fluoro-5-(2-hydroxyethyl)phenyl]methyl]cyclohexyl]methanone]	13	16
Cc1nc2c(F)cc(C[C@H]3CC[C@H](C(=O)N4OCC[C@H]4c4cc(F)cc(C#N)c4)CC3)cn2n1 [compound 284, trans-3-fluoro-5-[(3S)-2-[4-[(8-fluoro-2-methyl-[1,2,4]triazolo[1,5-a]pyridin-6-yl)methyl]cyclohexanecarbonyl]isoxazolidin-3-yl]benzonitrile]	34	17
